Measurements from US20050004186A1, “MEK inhibiting compounds” (Pfizer Inc, priority 2002, published 2005).
Counter-ions that a name gives are not always drawn.

What was measured:
MEK = assay: Cellular assay for measuring MEK inhibition, C26CPA1 (inhibition of ERK phosphorylation in C26 cells); assay type: cell-based, murine; conditions: for IC50: murine colon 26 (C26) carcinoma cells, one hour at 37 C; for C26CPA1 % Inhibition @ 0.1 μM / C26CPA1 % Inhibition @ 1 μM: C26 cells
Procedure: Cellular Assay for Measuring MEK Inhibition
MEK inhibitors were evaluated by determining their ability to inhibit phosphorylation of MAP kinase (ERK) in murine colon 26 (C26) carcinoma cells. Since ERK1 and ERK2 represent the only known substrates for MEK1 and MEK2, the measurement of inhibition of ERK phosphorylation in cells provides direct read out of cellular MEK inhibition by the compounds of the invention. Detection of phosphorylation of ERK was carried out either by Western blot or ELISA format. Briefly, the assays involve treatment of exponentially growing C26 cells with varying concentrations of the test compound (or vehicle control) for one hour at 37≡ C. For Western blot assay, cells were rinsed free of compound/vehicle and lysed in a solution containing 70 mM NaCl, 50 mM glycerol phosphate, 10 mM HEPES, […], 1% Triton X-100, 1 mM Na3VO4, 100 μM PMSF, 10 μM leupeptin and 10 μM pepstatin. Supernatants were then subjected to gel electrophoresis and hybridized to a primary antibody recognizing dually phosphorylated ERK1 and ERK2. To evaluate total MAPK levels, blots were subsequently ‘stripped’ and re-probed with a 1:1 mixture of polyclonal antibodies recognizing unphosphorylated ERK1 and ERK2. For pERK ELISA assay, pERK TiterZyme Enzyme immunometric Assay kits were acquired from Assay Designs, Inc (Ann Arbor, Mich.). Briefly, cells were harvested in lysis solution containing 50 mM β-glycerophosphate, 10 mM HEPES, pH7.4, 70 mM NaCl, 2 mM EDTA and 1% SDS and protein lysates were diluted 1:15 with supplied Assay buffer prior to the execution of the assay. The subsequent steps were carried out essentially as recommended by the manufacturer.

SMILES	melting point [°C]	C26CPA1 % Inhibition @ 0.1 μM (MEK) [%]	C26CPA1 % Inhibition @ 1 μM (MEK) [%]	also measured
CN(C)CC(C)(C)CNc1nnc(-c2ccc(F)c(F)c2Nc2ccc(I)cc2F)o1 [Example 19, N-{5-[3,4-Difluoro-2-(2-fluoro-4-iodo-phenylamino)-phenyl]-[1,3,4]oxadiazol-2-yl}-2,2,N′,N′-tetramethyl-propane-1.3-diamine]	143 to 146	–	–	IC50 (MEK): 0.309 µM
NCCCNc1nnc(-c2ccc(F)c(F)c2Nc2ccc(I)cc2F)o1 (as salt: hydrochloride) [Example 15, N′1′-{5-[3,4-Difluoro-2-(2-fluoro-4-iodo-phenylamino)-phenyl]-[1,3,4]oxadiazol-2-yl}-propane-1,3-diamine]	173 to 176	–	–	–
CN(C)CCCN(C)c1nnc(-c2ccc(F)c(F)c2Nc2ccc(I)cc2F)o1 (as salt: hydrochloride) [Example 12, N-{5-[3,4-Difluoro-2-(2-fluoro-4-iodo-phenylamino)-phenyl]-[1,3,4]oxadiazol-2-yl}-N,N′,N′-trimethyl-propane-1,3-diamine]	123 to 126	–	–	–
NCCCCNc1nnc(-c2ccc(F)c(F)c2Nc2ccc(I)cc2F)o1 (as salt: hydrochloride) [Example 14, N′1′-{5-[3,4-Difluoro-2-(2-fluoro-4-iodo-phenylamino)-phenyl]-[1,3,4]oxadiazol-2-yl}-butane-1,4-diamine]	157 to 159	–	–	–
Fc1cc(I)ccc1Nc1c(-c2nnc(NCCN3CCCCC3)o2)ccc(F)c1F (as salt: hydrochloride) [Example 13, {5-[3,4-Difluoro-2-(2-fluoro-4-iodo-phenylamino)-phenyl]-[1,3,4]oxadiazol-2-yl}-(2-piperidin-1-yl-ethyl)-amine]	191 to 193	–	–	–
CCc1ccc(Nc2c(-c3nnc(NC(C)Cc4ccsc4)o3)ccc(F)c2F)c(F)c1 (stereo not drawn) [Example 137, {5-[2-(4-Ethyl-2-fluoro-phenylamino)-3,4-difluoro-phenyl]-1,3,4-oxadiazol-2-yl}-(1-methyl-2-thiophen-3-yl-ethyl)-amine]	–	72.1	85.3	–
Cc1ccc(CNc2nnc(-c3ccc(F)c(F)c3Nc3ccc(I)cc3F)o2)o1 [Example 37, {5-[3,4-Difluoro-2-(2-fluoro-4-iodo-phenylamino)-phenyl]-[1,3,4]oxadiazol-2-yl}-(5-methyl-furan-2-ylmethyl)-amine]	–	18.4	87.2	–
Fc1cc(I)ccc1Nc1c(-c2nnc(NCCN3CCCCC3)o2)ccc(F)c1F [Example 13, {5-[3,4-Difluoro-2-(2-fluoro-4-iodo-phenylamino)-phenyl]-[1,3,4]oxadiazol-2-yl}-(2-piperidin-1-yl-ethyl)-amine]	–	–	–	IC50 (MEK): 0.382 µM
O=C1OCCC1Nc1nnc(-c2ccc(F)c(F)c2Nc2ccc(I)cc2F)o1 (stereo not drawn) [Example 57, 3-{5-[3,4-Difluoro-2-(2-fluoro-4-iodo-phenylamino)-phenyl]-[1,3,4]oxadiazol-2-ylamino}-dihydro-furan-2-one]	–	31.3	51.8	–
COc1cccc(CCNc2nnc(-c3ccc(F)c(F)c3Nc3ccc(I)cc3F)o2)c1 [Example 39, {5-[3,4-Difluoro-2-(2-fluoro-4-iodo-phenylamino)-phenyl]-[1,3,4]oxadiazol-2-yl}-[2-(3-methoxy-phenyl)-ethyl]-amine]	–	0	40.2	–
CCc1ccc(Nc2c(-c3nnc(NCC(c4cccnc4)N4CCOCC4)o3)ccc(F)c2F)c(F)c1 (stereo not drawn) [Example 128, {5-[2-(4-Ethyl-2-fluoro-phenylamino)-3,4-difluoro-phenyl]-1,3,4-oxadiazol-2-yl}-(2-morpholin-4-yl-2-pyridin-3-yl-ethyl)-amine]	–	0	0	–
Fc1cc(I)ccc1Nc1c(-c2nnc(NCCCN3CCOCC3)o2)ccc(F)c1F [Example 9, {5-[3,4-Difluoro-2-(2-fluoro-4-iodo-phenylamino)-phenyl]-[1,3,4]oxadiazol-2-yl}-(3-morpholin-4-yl-propyl)-amine]	–	–	–	IC50 (MEK): 0.311 µM
COCC(C)Nc1nnc(-c2ccc(F)c(F)c2Nc2ccc(I)cc2F)o1 (stereo not drawn) [Example 55, {5-[3,4-Difluoro-2-(2-fluoro-4-iodo-phenylamino)-phenyl]-[1,3,4]oxadiazol-2-yl}-(2-methoxy-1-methyl-ethyl)-amine]	–	23.9	25.2	–
CN(C)CCNc1nnc(-c2ccc(F)c(F)c2Nc2ccc(I)cc2F)o1 [Example 17, N-{5-[3,4-Difluoro-2-(2-fluoro-4-iodo-phenylamino)-phenyl]-[1,3,4]oxadiazol-2-yl}-N′,N′-dimethyl-ethane-1,2-diamine]	–	–	–	IC50 (MEK): 0.14 µM
COc1ccc(CCN(C)c2nnc(-c3ccc(F)c(F)c3Nc3ccc(I)cc3F)o2)cc1OC [Example 42, {5-[3,4-Difluoro-2-(2-fluoro-4-iodo-phenylamino)-phenyl]-[1,3,4]oxadiazol-2-yl}-[2-(3,4-dimethoxy-phenyl)-ethyl]-methyl-amine]	–	8.3	10	–

More lines, main results first:

melting point [°C]	SMILES	C26CPA1 % Inhibition @ 0.1 μM (MEK) [%]	C26CPA1 % Inhibition @ 1 μM (MEK) [%]	also measured
156 to 158	NCCNc1nnc(-c2ccc(F)c(F)c2Nc2ccc(I)cc2F)o1 (as salt: salt) [Example 11, N′1′-{5-[3,4-Difluoro-2-(2-fluoro-4-iodo-phenylamino)-phenyl]-[1,3,4]oxadiazol-2-yl}-ethane-1,2-diamine]	–	–	–
82 to 83	CCc1ccc(Nc2c(-c3nnc(CC)o3)ccc(F)c2F)c(F)c1 [Example 142, (4-Ethyl-2-fluoro-phenyl)-[6-(5-ethyl-[1,3,4]oxadiazol-2-yl)-2,3-difluoro-phenyl]-amine]	–	–	–
120 to 123	C=CCNc1nnc(-c2ccc(F)c(F)c2Nc2ccc(CC)cc2F)o1 [Example 70, Allyl-{5-[2-(4-ethyl-2-fluoro-phenylamino)-3,4-difluoro-phenyl]-[1,3,4]oxadiazol-2-yl}-amine]	–	–	–
168 to 170	CN(C)CCCNc1nnc(-c2ccc(F)c(F)c2Nc2ccc(I)cc2F)o1 (as salt: hydrochloride) [Example 16, N-{5-[3,4-Difluoro-2-(2-fluoro-4-iodo-phenylamino)-phenyl]-[1,3,4]oxadiazol-2-yl}-N′,N′-dimethyl-propane-1,3-diamine]	–	–	–
154 to 155	OCCCNc1nnc(-c2ccc(F)c(F)c2Nc2ccc(I)cc2F)o1 [Example 30, 3-{5-[3,4-Difluoro-2-(2-fluoro-4-iodo-phenylamino)-phenyl]-[1,3,4]oxadiazol-2-ylamino}-propan-1-ol]	–	–	–
173 to 175	CNCCNc1nnc(-c2ccc(F)c(F)c2Nc2ccc(I)cc2F)o1 (as salt: hydrochloride) [Example 18, N-{5-[3,4-Difluoro-2-(2-fluoro-4-iodo-phenylamino)-phenyl]-[1,3,4]oxadiazol-2-yl}-N′-methyl-ethane-1,2-diamine]	–	–	–
184 to 187	CN(C)CCNc1nnc(-c2ccc(F)c(F)c2Nc2ccc(I)cc2F)o1 (as salt: hydrochloride) [Example 17, N-{5-[3,4-Difluoro-2-(2-fluoro-4-iodo-phenylamino)-phenyl]-[1,3,4]oxadiazol-2-yl}-N′,N′-dimethyl-ethane-1,2-diamine]	–	–	–
